For the experiment, the target named is recombinant eIF4E (Homo sapiens (Human), UniProt P06730). Put plainly: Fluorescence polarization competition assay for eIF4E binding potency. The procedure, abridged: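 Protein and fluorescent cap-analog probe (EDA-m7GDP-ATTO-550) were mixed first for 5 min, after which serially diluted compound was added to final 75 nM eIF4E, 20 nM probe, 1% DMSO. Reactions equilibrated 30 min at room temperature before polarization was measured.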
(Polarisation of emitted light reports the rotation of a fluorescent probe.)

Where [1] appears, read: inhibition of eIF4E/EDA-m7GDP-ATTO-550 binding, calculated IC50 values, Table 4B, read-out: IC50.
Where [2] appears, read: fluorescence polarization competition, 75 nM recombinant eIF4E, 20 nM EDA-m7GDP-ATTO-550, IC50 class, read-out: elF4E FP.
Setting [3] is: inhibition of eIF4E/EDA-m7GDP-ATTO-550 binding by 50%, Table 4B calculated values, read-out: IC50.

Molecules are shown by their SMILES. Read-outs that look alike come from different tables or passages of the source.

Sequence of recombinant eIF4E (P06730 whole entry): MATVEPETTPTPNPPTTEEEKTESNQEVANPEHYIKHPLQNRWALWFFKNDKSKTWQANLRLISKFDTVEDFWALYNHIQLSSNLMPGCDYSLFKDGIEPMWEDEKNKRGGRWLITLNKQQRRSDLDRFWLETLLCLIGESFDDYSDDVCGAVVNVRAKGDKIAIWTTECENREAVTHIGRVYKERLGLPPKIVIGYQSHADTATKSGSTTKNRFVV

For `N#Cc1cccc2nc(C(F)F)n(CCOc3ccc(Cl)cc3-c3cccc(C(=O)O)c3)c(=O)c12` [compound 1986], the IC50 under setting [1] was 0.0785 µM. The same measure, in the same setting: the figure for `Cc1nc2cnc(N(C)C3CCN(C4(C(F)F)CC4)CC3)c(C#N)c2c(=O)n1CCOc1ccc(Cl)cc1-c1ccnc2c(C(=O)O)csc12` [compound 1430] is 0.0228 µM. For the compound `Cc1nc2cc(F)c(OC(F)F)c(C#N)c2c(=O)n1CCOc1ccc(Cl)cc1-c1ccnc2c(C(=O)O)csc12` [compound 545], the IC50 by setting is: under setting [2], below 0.05 µM; under setting [3], 0.00781 µM. Taken in the same sequence, the figures for `C#Cc1nc2c(=O)n(CCOc3ccc(Cl)cc3-c3cc(C)nc4c(C(=O)O)csc34)c(C)nc2cc1C(F)(F)F` [compound 783] were below 0.05 µM and 0.0148 µM. Take `Cc1nc2cc(C(F)(F)F)c(N3CCN(C)CC3)c(C#N)c2c(=O)n1CCOc1ccc(Cl)cc1-c1ccnc2cnsc12` [compound 1251]: the IC50 under setting [1] is 0.00477 µM. As to `Cc1cc(-c2cc(Cl)ccc2OCCn2c(C)nc3cc4c(c(C#N)c3c2=O)C(N(C)C)CC4)c2scc(C(=O)O)c2n1` (centres unmarked) [compound 612], the IC50 runs as follows: under setting [2], below 0.05 µM; under setting [3], 0.0438 µM. For `Cc1cc(-c2cc(Cl)ccc2OCCn2c(C)nc3cnc(-c4ccccc4C)c(C#N)c3c2=O)c2scc(C(=O)O)c2n1` [compound 944] the same measures were below 0.05 µM and 0.0462 µM. For the compound `Cc1cc(-c2cc(Cl)ccc2OCCn2c(C)nc3cc(C(F)(F)F)c(CC4CCN(C)CC4)c(C#N)c3c2=O)c2scc(C(=O)O)c2n1` [compound 713], the IC50 was below 0.05 µM under setting [2] and 0.0314 µM under setting [3]. For the compound `Cc1cc(-c2cc(Cl)ccc2OCCn2c(C)nc3cc(C(F)F)c(C4CC4)c(C#N)c3c2=O)c2scc(C(=O)O)c2n1` [compound 1048], the IC50 was below 0.05 µM under setting [2] and 0.0137 µM under setting [3]. For `Cc1cc(-c2cc(Cl)ccc2OCCn2c(C)nc3cc(C(F)(F)F)c(S(C)(=O)=O)nc3c2=O)c2scc(C(=O)O)c2n1` [compound 782], the IC50 was below 0.05 µM under setting [2] and 0.00403 µM under setting [3]. For `N#Cc1cc(C#N)c2c(=O)n(CCOc3ccc(Cl)cc3-c3cccc(C(=O)O)c3)c(CF)nc2c1` [compound 231] the same measures were below 0.05 µM and 0.0129 µM.

`Cc1sc2c(-c3cc(Cl)ccc3OCCn3c(C)nc4c(C)c(C(F)(F)F)c(N5CCN(C)CC5)c(C#N)c4c3=O)ccnc2c1C(=O)O` [compound 1933]: the IC50 under setting [1] was 0.0346 µM. On the same count and under the same terms, the figure for `Cc1nc2cnc(N(C)C3CCN(CC(F)(F)C(F)F)CC3)c(C#N)c2c(=O)n1CC#Cc1ccc(Cl)cc1-c1ccnc2c(C(=O)NS(=O)(=O)c3ccncc3)csc12` [compound 1705] is 0.0048 µM; for `Cc1nc2cnc(N3CCN(C)C(C(F)F)C3)c(C#N)c2c(=O)n1CCOc1ccc(Cl)cc1-c1ccnc2c(C(=O)O)csc12` (centres unmarked) [compound 1305] it is 0.0265 µM. Turning to `Cc1cc(-c2cc(Cl)ccc2OCCn2c(C)nc3cc(C(F)(F)F)c(N4CCC(F)(F)CC4)nc3c2=O)c2scc(C(=O)O)c2n1` [compound 802], the IC50 runs as follows: under setting [2], below 0.05 µM; under setting [3], 0.0359 µM.

With `Cc1cc(-c2cc(Cl)ccc2OCCn2c(C)nc3cnc(-c4cc(Cl)ccc4C)c(C#N)c3c2=O)c2scc(C(=O)O)c2n1` [compound 953], the IC50 under setting [2] is below 0.05 µM and the IC50 under setting [3] was 0.0134 µM.

Take `Cc1nc2cc(C(F)F)c(OC(F)F)c(C#N)c2c(=O)n1CCOc1ccc(Cl)cc1-c1ccnc2c(C(=O)O)csc12` [compound 548]: the IC50 is below 0.05 µM under setting [2] and 0.0472 µM under setting [3]. As for `O=C(O)c1cccc(-c2cc(Cl)ccc2OCCn2cnc3cccc(F)c3c2=O)c1` [compound 4], the IC50 by setting is: under setting [2], above 1 µM; under setting [3], 3.52 µM.

For the compound `Cc1cc(-c2cc(Cl)ccc2OCCn2c(C)nc3cc(C(F)(F)F)c(N4CCC(C)CC4)nc3c2=O)c2scc(C(=O)O)c2n1` [compound 800], the IC50 is, setting by setting: under setting [2], below 0.05 µM; under setting [3], 0.0324 µM. Turning to `Cc1nc2cnc(N3CCN(C(C)CF)CC3)c(C#N)c2c(=O)n1CCOc1ccc(Cl)cc1-c1ccnc2c(C(=O)O)csc12` (centres unmarked) [compound 1424], the IC50 under setting [1] was 0.0292 µM. As for `Cc1nc2cnc(C#N)cc2c(=O)n1CCOc1ccc(Cl)cc1-c1cccc(C(=O)O)c1` [compound 1995], the IC50 under setting [1] was 0.0593 µM. Consider `Cc1nc2cc(C(F)(F)F)cc(S)c2c(=O)n1CCOc1ccc(Cl)cc1-c1ccnc2c(C(=O)O)csc12` [compound 221], for which the IC50 under setting [2] was in the range of 0.05 to 1 µM and the IC50 under setting [3] was 0.113 µM. For the compound `CCN(c1ncc2nc(C)n(CC#Cc3ccc(Cl)cc3-c3ccnc4c(C(=O)O)csc34)c(=O)c2c1C#N)C1CCN(C2COC2)CC1` [compound 1186], the IC50 is below 0.05 µM under setting [2] and 0.0201 µM under setting [3]. On to `Cc1nc2cnc(N3CCN(C4C(C)(C)C4(C)C)CC3)c(C#N)c2c(=O)n1CCOc1ccc(Cl)cc1-c1ccnc2c(C(=O)O)csc12` [compound 1473], for which, under setting [1], the IC50 was 0.0169 µM.

As for `Cc1nc2cnc(C3=CCN(CC(F)(F)F)CC3)c(C#N)c2c(=O)n1CCOc1ccc(Cl)cc1-c1ccnc2c(C(=O)O)csc12` [compound 889], the IC50 under setting [2] is below 0.05 µM and the IC50 under setting [3] was 0.0124 µM. For `Cc1nc2cnc(N3CC4(CC(N(C)C5CC5)C4)C3)c(C#N)c2c(=O)n1CCOc1ccc(Cl)cc1-c1ccnc2c(C(=O)O)csc12` [compound 829] the same measures were below 0.05 µM and 0.00453 µM. For the compound `Cc1nc2cc(C(F)(F)F)cc(Br)c2c(=O)n1CCOc1ccc(Cl)cc1-c1cccc(C(=O)O)c1` [compound 304], the IC50 is above 1 µM under setting [2] and 1.6 µM under setting [3]. Taken in the same sequence, the figures for `Cc1cc(-c2cc(Cl)ccc2OCCn2c(C)nc3cncc(C#N)c3c2=O)c2scc(C(=O)NS(C)(=O)=O)c2n1` [compound 600] were below 0.05 µM and 0.0142 µM. For `COC(=O)c1csc2c(-c3cc(Cl)ccc3OCCn3c(C)nc4cc(C(F)(F)F)c(N5CCN(C)CC5)c(C#N)c4c3=O)cc(C)nc12` [compound 1391], the IC50 under setting [1] is 0.0376 µM. As to `CC(=O)c1csc2c(-c3cc(Cl)ccc3C#CCn3c(C)nc4cc(C(F)(F)F)c(N5CC6(C5)CN(C5CC5)C6)c(C#N)c4c3=O)ccnc12` [compound 1178], the IC50 was below 0.05 µM under setting [2] and 0.0229 µM under setting [3].

For the compound `Cc1nc2cc(C(F)(F)F)c3c(c2c(=O)n1CCOc1ccc(Cl)cc1-c1ccnc2c(C(=O)O)csc12)C(=O)OC3` [compound 1972], the IC50 under setting [1] was 0.018 µM. On to `C#Cc1c(C(F)(F)F)cc2nc(C)n(CCOc3ccc(Cl)cc3-c3cc(C)nc4c(C(=O)O)csc34)c(=O)c2c1C#N` [compound 790], for which the IC50 by setting is: under setting [2], below 0.05 µM; under setting [3], 0.0178 µM. Turning to `CCN(c1ncc2nc(C)n(CC#Cc3ccc(Cl)cc3-c3ccnc4c(C(=O)NS(=O)(=O)c5ccccn5)csc34)c(=O)c2c1C#N)C1CCN(C2COC2)CC1` [compound 1742], the IC50 under setting [1] was 0.00543 µM. As for `Cc1cc(-c2cc(Cl)ccc2OCCn2c(C)nc3c(C)c(C(F)(F)F)cc(C#N)c3c2=O)c2scc(C(=O)O)c2n1` [compound 364], the IC50 under setting [2] was 0.05 to 1 µM and the IC50 under setting [3] was 0.107 µM. Consider `Cc1nc2cnc(C(F)(F)C3CCN(CC(F)F)CC3)c(C#N)c2c(=O)n1CC#Cc1ccc(Cl)cc1-c1ccnc2c(C(=O)O)csc12` [compound 1572], for which the IC50 under setting [1] was 0.02 µM. In the case of `Cc1nc(N2CCN(C)CC2)c(C#N)c2c(=O)n(CCOc3ccc(Cl)cc3-c3ccnc4c(C(=O)O)csc34)c(C)nc12` [compound 448], the IC50 is below 0.05 µM under setting [2] and 0.0042 µM under setting [3]. For `O=C(O)c1csc2c(-c3cc(Cl)ccc3OCCn3c(=O)c4ccccc4c4cnncc43)ccnc12` [compound 658] the same measures were above 1 µM and 1.29 µM. For `Cc1nc2cc(C(F)(F)F)c(N3CCN(CC(F)F)CC3)c(C#N)c2c(=O)n1CCOc1ccc(Cl)cc1-c1cccc(C(=O)O)c1` [compound 377] the same measures were 0.05 to 1 µM and 0.0612 µM. Regarding `Cc1cc(-c2cc(Cl)ccc2OCCn2c(C)nc3cc(C(F)(F)F)c(OCCN4CCNCC4)c(C#N)c3c2=O)c2sc(C)c(C(=O)O)c2n1` [compound 1392], the IC50 under setting [1] was 0.0265 µM. Still for that read-out and setting: the figure for `N#Cc1cc(C(F)(F)F)cc2ncn(CCOc3ccc(Cl)cc3-c3cccc(C(=O)O)c3)c(=O)c12` [compound 1994] is 0.0418 µM; for `Cc1sc2c(-c3cc(Cl)ccc3OCCn3c(C)nc4cc(C(F)(F)F)c(CC5CN(C)C5)c(C#N)c4c3=O)ccnc2c1C(=O)O` [compound 1283] it is 0.0335 µM. Take `Cc1cc2nc(C)n(CCOc3ccc(Cl)cc3-c3cc(C)nc4c(C(=O)O)csc34)c(=O)c2c(C#N)n1` [compound 685]: the IC50 under setting [2] was below 0.05 µM. On to `COc1cc(-c2cc(Cl)ccc2OCCn2cnc3cnc(C#N)cc3c2=O)cc(C(=O)O)n1` [compound 87], for which the IC50 is above 1 µM under setting [2] and 1.16 µM under setting [3]. For `Cc1nc2cc(C#N)c(C(F)F)c(C#N)c2c(=O)n1CCOc1ccc(Cl)cc1-c1cccc(C(=O)O)c1` [compound 63] the same measures were below 0.05 µM and 0.0258 µM. For the compound `COC(=O)c1csc2c(-c3cc(Cl)ccc3C#CCn3c(C)nc4cnc(N5CCN(CC(F)F)CC5)c(C#N)c4c3=O)ccnc12` [compound 1404], the IC50 under setting [1] is 0.482 µM. Turning to `Cc1cc(-c2cc(Cl)ccc2OCCn2c(C)nc3cc(N(C)C)c(-c4ccccc4)c(C#N)c3c2=O)c2scc(C(=O)O)c2n1` [compound 1040], the IC50 is, setting by setting: under setting [2], below 0.05 µM; under setting [3], 0.03 µM. For `Cc1nc2cnc(N(C)C3CCN(CC(F)(F)F)CC3)c(C#N)c2c(=O)n1CC#Cc1ccc(Cl)cc1-c1ccnc2c(C(=O)O)csc12` [compound 1140] the same measures were below 0.05 µM and 0.00614 µM. On to `Cc1nc2cnc(N3CCCC4(CCN4CC(F)F)C3)c(C#N)c2c(=O)n1CCOc1ccc(Cl)cc1-c1ccnc2c(C(=O)O)csc12` (centres unmarked) [compound 1649], for which the IC50 under setting [1] is 0.0183 µM.

Source of the values: patent publication US11286268B1, “EIF4E-inhibiting compounds and methods” (EFFECTOR THERAPEUTICS, INC., priority 2019, dated 2022).
